Source: US8536407B2, “Heat resistant plants and plant tissues comprising a variant adenosine diphosphate glucose pyrophosphorylase small subunit protein and methods of use thereof” (University of Florida Research Foundation, Inc., priority 2008, dated 2013)
Entries after “also recorded” stand apart in the source; their conditions may differ. Read-outs that look alike come from different tables or passages of the source.

Experiments:
[1] = tested on: ADP-glucose pyrophosphorylase (AGPase) MP/SH2, mosaic small subunit MP (first 200 amino acids of maize BT2 and last 275 amino acids of potato tuber small …)
Experimental: AGPase was desalted by using Zeba Micro Desalt Spin Columns (Pierce) before assaying. AGPase was exchanged into 50 mM HEPES, 5 mM MgCl2, 0.5 mM EDTA and 0.5 mg/mL BSA (for stability).
The reaction was stopped by boiling for 2 min. PPi was estimated by coupling the reaction to a reduction in NADH concentration using 300 μl of coupling reagent. The coupling reagent contained 25 mM imidazole pH 7.4, 4 mM MgCl2, 1 mM EDTA, 0.2 mM NADH, 0.725U aldolase, 0.4U triose phosphate isomerase, 0.6U glycerophosphate dehydrogenase, 1 mM fructose 6-phosphate and 0.8 μg of pyrophosphate dependent phosphofructokinase (PPi-PFK). […] NADH concentration was estimated by absorbance at 340 nm. PPi concentration was calculated by a standard curve developed by using various amounts of PPi instead of AGPase. […] The kinetic constants of AGPase were calculated by Prism 4.0 (Graph Pad, San Diego Calif.).
All other values are expressed as mean±standard deviation. The specific activity of AGPase in the absence of 3-PGA is expressed as a percentage of the specific activity in the presence of 10 mM of 3-PGA (mean±standard error).

[2] = target: T1, maize endosperm ADP-glucose pyrophosphorylase (AGPase) BT2/SH2, wild type small subunit BT2 complexed with wild type large subunit SH2 (Zea mays, UniProt P55241+Q947C0); test: Kinetic and allosteric characterization of purified recombinant AGPase, forward direction (BT2/SH2); assay type: biochemical
T1 sequence (Q947C0 1-475): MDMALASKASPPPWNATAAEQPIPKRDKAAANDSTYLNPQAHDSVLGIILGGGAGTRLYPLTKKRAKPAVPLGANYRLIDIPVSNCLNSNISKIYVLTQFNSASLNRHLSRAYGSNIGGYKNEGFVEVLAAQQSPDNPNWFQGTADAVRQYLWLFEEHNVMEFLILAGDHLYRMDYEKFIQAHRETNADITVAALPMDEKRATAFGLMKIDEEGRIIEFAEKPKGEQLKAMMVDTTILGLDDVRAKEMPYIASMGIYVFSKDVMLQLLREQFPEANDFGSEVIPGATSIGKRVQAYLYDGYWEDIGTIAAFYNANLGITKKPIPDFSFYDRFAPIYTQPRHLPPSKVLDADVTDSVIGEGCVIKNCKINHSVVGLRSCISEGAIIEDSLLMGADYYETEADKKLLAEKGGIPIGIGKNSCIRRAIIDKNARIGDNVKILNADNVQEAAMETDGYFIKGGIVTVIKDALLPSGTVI
T1 sequence (P55241 46-516): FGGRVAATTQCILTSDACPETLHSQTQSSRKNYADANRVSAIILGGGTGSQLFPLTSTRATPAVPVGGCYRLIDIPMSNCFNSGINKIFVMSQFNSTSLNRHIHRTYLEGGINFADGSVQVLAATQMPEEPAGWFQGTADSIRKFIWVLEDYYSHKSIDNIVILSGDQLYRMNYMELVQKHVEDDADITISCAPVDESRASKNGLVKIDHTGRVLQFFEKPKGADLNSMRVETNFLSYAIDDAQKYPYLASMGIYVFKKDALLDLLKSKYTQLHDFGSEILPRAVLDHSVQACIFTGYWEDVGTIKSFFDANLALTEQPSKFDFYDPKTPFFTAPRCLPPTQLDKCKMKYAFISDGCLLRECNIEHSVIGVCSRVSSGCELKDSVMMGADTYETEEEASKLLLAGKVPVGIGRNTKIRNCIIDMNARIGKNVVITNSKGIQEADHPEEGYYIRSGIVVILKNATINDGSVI
Experimental: (§1) The following steps were conducted at 4° C.
(§2) The reaction was stopped by boiling for 2 min. […] NADH concentration was estimated by absorbance at 340 nm.
(§3) All other values are expressed as mean±standard deviation.

[3] = target: T2, maize endosperm ADP-glucose pyrophosphorylase (AGPase) variant BT2-TI/SH2, small subunit BT2 with Thr462 to Ile (TI, SEQ ID NO:2) complexed with wild type SH2 (Zea mays, UniProt P55241+Q947C0, T462I); test: Kinetic and allosteric characterization of purified recombinant AGPase, forward direction (BT2-TI/SH2); assay type: biochemical
T2 sequence (Q947C0 1-475 T462I): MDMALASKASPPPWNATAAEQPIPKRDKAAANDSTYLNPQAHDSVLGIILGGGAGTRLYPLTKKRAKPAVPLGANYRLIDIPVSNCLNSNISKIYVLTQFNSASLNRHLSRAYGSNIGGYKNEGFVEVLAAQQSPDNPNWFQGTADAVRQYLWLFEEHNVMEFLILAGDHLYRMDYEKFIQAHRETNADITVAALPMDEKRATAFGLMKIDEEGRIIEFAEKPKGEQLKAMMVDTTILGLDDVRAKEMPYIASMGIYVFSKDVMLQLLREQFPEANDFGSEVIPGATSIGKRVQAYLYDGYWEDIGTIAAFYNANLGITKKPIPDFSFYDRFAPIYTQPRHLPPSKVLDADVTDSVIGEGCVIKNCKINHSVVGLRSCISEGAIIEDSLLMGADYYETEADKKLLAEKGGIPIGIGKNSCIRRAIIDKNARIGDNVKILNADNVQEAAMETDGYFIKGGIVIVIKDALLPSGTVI
T2 sequence (P55241 46-516): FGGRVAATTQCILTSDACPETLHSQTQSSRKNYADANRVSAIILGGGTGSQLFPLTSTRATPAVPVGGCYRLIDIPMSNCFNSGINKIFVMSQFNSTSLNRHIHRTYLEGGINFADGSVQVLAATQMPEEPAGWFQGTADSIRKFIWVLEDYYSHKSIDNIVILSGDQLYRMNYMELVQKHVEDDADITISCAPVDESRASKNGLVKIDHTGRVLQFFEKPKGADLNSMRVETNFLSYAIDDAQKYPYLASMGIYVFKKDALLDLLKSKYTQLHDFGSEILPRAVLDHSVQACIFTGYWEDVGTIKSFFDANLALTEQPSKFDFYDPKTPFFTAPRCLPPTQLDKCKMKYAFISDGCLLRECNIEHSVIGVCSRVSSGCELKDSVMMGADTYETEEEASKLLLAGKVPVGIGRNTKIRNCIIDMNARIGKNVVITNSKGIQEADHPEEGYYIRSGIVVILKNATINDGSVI
Experimental: as §1, §2
A mutant Bt2 library was created by error-prone PCR. The mutational load was ˜2 non-synonymous mutations per clone (Georgelis et al. 2007). The mutants were expressed in E. coli along with a wildtype Sh2 gene. Approximately 50,000 colonies were screened for glycogen production. Ten dark staining colonies were picked. The two darkest staining Bt2 mutants were sequenced. Both had the same non-synonymous mutation resulting in a change of amino acid 462 from threonine to isoleucine (TI). The threonine in that position is absolutely conserved among the higher plant small subunits (data not shown).
Ki's are expressed as mean (95% confidence interval). All other values are expressed as mean±standard deviation.

[4] = tested on: ADP-glucose pyrophosphorylase (AGPase) variant MP-TI/SH2, maize/potato mosaic small subunit MP with the TI mutation (threonine to isoleucine at position …); test: Kinetic and allosteric characterization of purified recombinant AGPase, forward direction (MP-TI/SH2); assay type: biochemical, maize (Zea mays) / potato tuber
Experimental: as §1, §2, §3

[5] = tested on: ADP-glucose pyrophosphorylase (AGPase) MP/SH2, mosaic small subunit MP (first 200 amino acids of maize BT2 and last 275 amino acids of potato tuber small …); details: MP/SH2 compared to wildtype BT2/SH2; Cross et al., 2004; Boehlein et al., 2005; cited from earlier work
[6] = varying ATP, G-1-P saturating (2 mM), mean±standard deviation
[7] = specific activity in absence of 3-PGA as percentage of that with 10 mM 3-PGA, mean±standard error
[8] = 1 mM ATP, 2 mM G-1-P, 2.5 mM 3-PGA, mean (95% confidence interval), read-out: Ki Pi

Compound: Nc1ncnc2c1ncn2[C@@H]1O[C@H](COP(=O)(O)OP(=O)(O)OP(=O)(O)O)[C@@H](O)[C@H]1O [ATP]
- kcat (ATP) ([1]; MP/SH2, varying ATP, G-1-P saturating (2 mM), mean±standard deviation): 69.337 s⁻¹
- Km ([1]; read-out: Km ATP, MP/SH2, forward direction, pH 7.4, 37° C., varying ATP, mean±standard deviation): 133 µM
- Km ([2]; read-out: Km ATP, forward direction, pH 7.4, 37° C., varying ATP, mean±standard deviation): 102 µM
- kcat (ATP) [2, 6]: 43.321 s⁻¹
- kcat (ATP) ([3]; BT2-TI/SH2, varying ATP, G-1-P saturating (2 mM), mean±standard deviation): 29.112 s⁻¹
- Km (compared with BT2/SH2, in words) ([3]; BT2-TI/SH2 versus BT2/SH2): indistinguishable from BT2/SH2
- Km ([3]; read-out: Km ATP, BT2-TI/SH2, forward direction, pH 7.4, 37° C., varying ATP, mean±standard deviation): 146 µM
- Km ([4]; forward direction, pH 7.4, 37° C., varying ATP, mean±standard deviation, read-out: Km ATP): 112 µM
- kcat (ATP) [4, 6]: 49.031 s⁻¹

Compound: O=C(O)[C@H](O)COP(=O)(O)O [3-PGA]
- Vmax − 3-PGA/Vmax + 3-PGA ([1]; MP/SH2, specific activity in absence of 3-PGA as percentage of that with 10 mM 3-PGA, mean±standard error): (28.2 ± 3.1%)
- affinity for 3-PGA (in words) ([1]; MP/SH2 compared to BT2/SH2): increased affinity for 3-PGA; also recorded: a higher affinity for 3-PGA
- Vmax − 3-PGA/Vmax + 3-PGA [2, 7]: (7.2 ± 3.2%)
- Ka for 3-PGA (compared with BT2/SH2, in words) ([3]; BT2-TI/SH2 versus BT2/SH2): indistinguishable from BT2/SH2
- Vmax − 3-PGA/Vmax + 3-PGA [4, 7]: (24.4 ± 5.3%)
- affinity for 3-PGA (in words) [5]: increased affinity for 3-PGA

Compound: O=P(O)(O)O [Pi, inorganic phosphate]
- affinity for Pi (in words) ([1]; MP/SH2 compared to BT2/SH2): decreased affinity for Pi; also recorded: a lower affinity for the inhibitor Pi
- Ki ([1]; read-out: Ki Pi, MP/SH2, 1 mM ATP, 2 mM G-1-P, 2.5 mM 3-PGA, mean (95% confidence interval)): 6.61 mM
- Ki [2, 8]: 2.32 mM
- Ki ([3]; BT2-TI/SH2, 1 mM ATP, 2 mM G-1-P, 2.5 mM 3-PGA, mean (95% confidence interval), read-out: Ki Pi): 4.07 mM
- Ki for Pi (compared with BT2/SH2, in words) ([3]; BT2-TI/SH2 versus BT2/SH2): indistinguishable from BT2/SH2
- Ki [4, 8]: 5.87 mM
